Legend:
[1] = target: T1, human B1R (bradykinin receptor 1) (Homo sapiens, UniProt P46663); assay: FLIPR Ca2+ assay (Fluo-4) on CHO K1 cells stably transfected with the human B1R gene (hB1R cells): % inhibition at 10 μM / IC50, agonist Lys-Des-Arg9-bradykinin; type: cell-based; conditions: CHO-K1, human B1R
T1 construct: expressed in transfected cells; host or cells: CHO K1 cells
T1 sequence (P46663 1-353): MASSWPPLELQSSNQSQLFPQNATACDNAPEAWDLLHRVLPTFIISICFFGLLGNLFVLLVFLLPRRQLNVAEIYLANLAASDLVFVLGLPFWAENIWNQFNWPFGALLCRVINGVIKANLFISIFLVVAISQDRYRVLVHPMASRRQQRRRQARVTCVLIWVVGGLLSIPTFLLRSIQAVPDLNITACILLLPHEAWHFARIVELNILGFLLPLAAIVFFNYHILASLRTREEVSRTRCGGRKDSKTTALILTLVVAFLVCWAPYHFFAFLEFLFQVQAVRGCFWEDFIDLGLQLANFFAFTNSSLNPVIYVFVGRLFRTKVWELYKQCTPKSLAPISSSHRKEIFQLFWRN
How it was run: (§1)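 Using a two-addition FLIPR protocol, compound (10 μM for % values; concentration series for IC50) was preincubated 10–20 min with Fluo-4-loaded B1R-expressing CHO K1 cells before EC80 agonist challenge. Suppression of Ca2+ inflow, read as peak fluorescence, is expressed relative to maximum achievable inhibition; duplicate/triplicate, ≥2 independent experiments.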

[2] = target: T2, rat B1R (bradykinin receptor 1) (Rattus norvegicus, UniProt P97583); assay: FLIPR Ca2+ assay (Fluo-4) on CHO K1 cells stably transfected with the B1R gene of the rat (rB1R cells): % inhibition at 10 μM / IC50, agonist Des-Arg9-bradykinin; type: cell-based; conditions: CHO-K1, rat B1R
T2 construct: expressed in transfected cells; host or cells: CHO K1 cells
T2 sequence (P97583 1-337): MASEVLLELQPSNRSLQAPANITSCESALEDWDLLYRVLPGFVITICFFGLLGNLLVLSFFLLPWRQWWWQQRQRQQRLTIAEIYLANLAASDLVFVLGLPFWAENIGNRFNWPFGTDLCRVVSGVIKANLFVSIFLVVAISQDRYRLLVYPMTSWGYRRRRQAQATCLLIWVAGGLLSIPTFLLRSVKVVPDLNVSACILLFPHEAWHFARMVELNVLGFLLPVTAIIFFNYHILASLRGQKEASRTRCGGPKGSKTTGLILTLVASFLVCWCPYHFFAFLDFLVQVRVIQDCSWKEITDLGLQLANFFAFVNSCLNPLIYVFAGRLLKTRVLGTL
How it was run: as §1

inhibition at 10 µM [1] [%]	inhibition at 10 µM [2] [%]	Compound
98	96	O=C(NC1CCc2ccc(C(=O)N3CCC4(CCN(c5ccnc(C(F)(F)F)n5)CC4)C3)cc21)c1ccccc1Cl (stereo not shown) [Example H-51, 2-chloro-N-[6-[8-[2-(trifluoromethyl)-pyrimidin-4-yl]-3,8-diazaspiro[4.5]decane-3-carbonyl]-2,3-dihydro-1H-inden-1-yl]-benzamide]
99	105	O=C(N[C@@H]1CCc2ccc(C(=O)N3CCC4(CCN(c5ccncc5)CC4)C3)cc21)c1cccc(F)c1Cl [Example H-153, 2-Chloro-3-fluoro-N-[(1R)-6-(8-pyridin-4-yl-3,8-diazaspiro[4.5]decane-3-carbonyl)-2,3-dihydro-1H-inden-1-yl]-benzamide]
56	47	O=C(c1cccc2c1CC[C@H]2N1Cc2cccc(Cl)c2C1=O)N1CCC2(CC1)CCN(c1ccncc1)CC2 [Example H-170, 7-Chloro-2-[(1R)-4-(9-pyridin-4-yl-3,9-diazaspiro[5.5]undecane-3-carbonyl)-2,3-dihydro-1H-inden-1-yl]-2,3-dihydro-isoindol-1-one]
100	98	O=C(c1ccc2c(c1)CC[C@@H]2N1Cc2cccc(Cl)c2C1=O)N1CCC2(CCN(c3ccncc3)CC2)C1 [Example H-157]
44	44	O=C(c1cccc2c1CC[C@@H]2NS(=O)(=O)c1ccccc1Cl)N1CCC2(CCN(c3ccncc3)CC2)C1 [Example H-165, 2-Chloro-N-[(1S)-4-(8-pyridin-4-yl-3,8-diazaspiro[4.5]decane-3-carbonyl)-2,3-dihydro-1H-inden-1-yl]-benzenesulfonic acid amide]
99	105	O=C(N[C@@H]1CCOc2ccc(C(=O)N3CCC4(CC3)CCN(c3ccncc3)C4)cc21)c1ccccc1Cl [Example H-57, 2-Chloro-N-[(4R)-6-(3-pyridin-4-yl-3,8-diazaspiro[4.5]decane-8-carbonyl)-3,4-dihydro-2H-chromen-4-yl]-benzamide]
80	101	O=C(N[C@@H]1CCc2ccc(C(=O)N3CCC4(CCC(c5cccnc5)CC4)C3)cc21)c1ccccc1Cl (stereo partly drawn) [Example H-135, 2-Chloro-N-[(1R)-6-(8-pyridin-3-yl-3-azaspiro[4.5]decane-3-carbonyl)-2,3-dihydro-1H-inden-1-yl]-benzamide]
98	103	O=C(c1ccc2c(c1)CC[C@H]2N1Cc2cccc(Cl)c2C1=O)N1CCC2(CC1)CCN(c1ccncc1)CC2 [Example H-159, 7-Chloro-2-[(1R)-5-(9-pyridin-4-yl-3,9-diazaspiro[5.5]undecane-3-carobnyl)-2,3-dihydro-1H-inden-1-yl]-2,3-dihydro-isoindol-1-one]
99	103	O=C(N[C@@H]1CCCc2cc(F)c(C(=O)N3CCC4(CC3)CCN(c3ccncc3)C4)cc21)c1ccccc1Cl [Example H-87, 2-Chloro-N-[(1R)-6-fluoro-7-(3-pyridin-4-yl-3,8-diazaspiro[4.5]decane-8-carbonyl)-1,2,3,4-tetrahydro-naphthalen-1-yl]-benzamide]
100	102	O=C(N[C@@H]1CCOc2ccc(C(=O)N3CCC4(CCN(c5ccncc5)CC4)C3)cc21)c1ccccc1Cl [Example H-67, 2-Chloro-N-[(4R)-6-(8-pyridin-4-yl-3,8-diazaspiro[4.5]decane-3-carbonyl)-3,4-dihydro-2H-chromen-4-yl]-benzamide]

The remaining lines, values behind:

Compound	inhibition at 10 µM [1] [%]	inhibition at 10 µM [2] [%]
CC1(C)Cc2ccc(C(=O)N3CCC4(CC3)CCN(c3ccncc3)CC4)cc2C1NC(=O)c1ccc(F)cc1Cl (stereo not shown) [IND_CC-275, 2-Chloro-N-[2,2-dimethyl-6-(9-pyridin-4-yl-3,9-diazaspiro[5.5]undecane-3-carbonyl)-1,3-dihydro-inden-1-yl]-4-fluoro-benzamide]	100	107
O=C(Cc1ccccc1Cl)NC1CCc2ccc(C(=O)N3CCC4(CC3)CCN(c3ccncc3)CC4)cc21 (stereo not shown) [Ind_CC-007, 2-(2-chlorophenyl)-N-[6-(9-pyridin-4-yl-3,9-diazaspiro[5.5]undecane-3-carbonyl)-2,3-dihydro-1H-inden-1-yl]-acetamide]	99	102
CC1(C)CC(NC(=O)c2c(Cl)cccc2Cl)c2cc(C(=O)N3CCC4(CC3)CCN(c3ccncc3)CC4)ccc21 (stereo not shown) [IND_CC-288, 2,6-Dichloro-N-[3,3-dimethyl-6-(3-pyridin-4-yl-3,9-diazaspiro[5.5]undecane-9-carbonyl)-1,2-dihydro-inden-1-yl]-benzamide]	100	106
Cc1cccc(Cl)c1S(=O)(=O)NC1CC(C)(C)c2ccc(C(=O)N3CCC4(CC3)CCN(c3ccncc3)CC4)cc21 (stereo not shown) [IND_CC-259, 2-Chloro-N-[3,3-dimethyl-6-(3-pyridin-4-yl-3,9-diazaspiro[5.5]undecane-9-carbonyl)-1,2-dihydro-inden-1-yl]-6-methyl-benzenesulfonic acid amide]	99	100
CN(C(=O)/C=C/c1ccccc1Cl)C1CCc2ccc(C(=O)N3CCC4(CC3)CCN(c3ccncc3)CC4)cc21 (stereo not shown) [Ind_CC-020, (E)-3-(2-chlorophenyl)-N-methyl-N-[6-(9-pyridin-4-yl-3,9-diazaspiro[5.5]undecane-3-carbonyl)-2,3-dihydro-1H-inden-1-yl]-acrylamide]	89	88
Cc1nc(CN2CCC3(CC2)CCN(C(=O)c2ccc4c(c2)C(NC(=O)c2ccccc2Cl)CC4)CC3)c[nH]1 (stereo not shown) [IND_CC-528, 2-Chloro-N-[6-[9-[(2-methyl-1H-imidazol-4-yl)-methyl]-3,9-diazaspiro[5.5]undecane-3-carbonyl]-2,3-dihydro-1H-inden-1-yl]-benzamide]	24	102
N#Cc1ccccc1CN1CCC2(CC1)CCN(C(=O)c1ccc3c(c1)C(NC(=O)c1ccccc1Cl)CC3)CC2 (stereo not shown) [IND_CC-535, 2-Chloro-N-[6-[9-[(2-cyano-phenyl)-methyl]-3,9-diazaspiro[5.5]undecane-3-carbonyl]-2,3-dihydro-1H-inden-1-yl]-benzamide]	49	90
CN(C)C1(c2ccc(F)cc2)CCC2(CCN(C(=O)c3ccc4c(c3)C(NC(=O)c3sccc3Cl)CC4)CC2)CC1 (stereo not shown) [Ind_CC-105, 3-chloro-N-[6-[9-dimethylamino-9-(4-fluorophenyl)-3-azaspiro[5.5]undecane-3-carbonyl]-2,3-dihydro-1H-inden-1-yl]-thiophene-2-carboxylic acid amide]	61	86
O=C(/C=C/c1ccccc1Cl)NC1CCc2ccc(C(=O)N3CCC4(CC3)CCN(c3ccncc3)CC4)cc21 (stereo not shown) [Ind_CC-008, (E)-3-(2-chlorophenyl)-N-[6-(9-pyridin-4-yl-3,9-diazaspiro[5.5]undecane-3-carbonyl)-2,3-dihydro-1H-inden-1-yl]-acrylamide]	72	74
O=C(c1ccc2c(c1)C(NS(=O)(=O)CCc1ccccc1Cl)CC2)N1CCC2(CC1)CCN(c1ccncc1)CC2 (stereo not shown) [IND_CC-241, 2-(2-Chlorophenyl)-N-[6-(9-pyridin-4-yl-3,9-diazaspiro[5.5]undecane-3-carbonyl)-2,3-dihydro-1H-inden-1-yl]-ethanesulfonic acid amide]	95	101
COc1cc(C)c(C(=O)NC2CCc3ccc(C(=O)N4CCC5(CC4)CCN(c4ccncc4)C5)cc32)c(C)c1 (stereo not shown) [Ind_CC-094, 4-methoxy-2,6-dimethyl-N-[6-(2-pyridin-4-yl-2,8-diazaspiro[4.5]decane-8-carbonyl)-2,3-dihydro-1H-inden-1-yl]-benzamide]	42	65
CC1(C)Cc2ccc(C(=O)N3CCC4(CC3)CCN(c3ccncc3)CC4)cc2C1NC(=O)c1sccc1Cl (stereo not shown) [Ind_CC-065, 3-chloro-N-[2,2-dimethyl-6-(9-pyridin-4-yl-3,9-diazaspiro[5.5]undecane-3-carbonyl)-1,3-dihydro-inden-1-yl]-thiophene-2-carboxylic acid amide]	94	98
CC1(C)CC(NC(=O)c2c(Cl)cccc2C(F)(F)F)c2cc(C(=O)N3CCC4(CC3)CCN(c3ccncc3)CC4)ccc21 (stereo not shown) [IND_CC-243, 2-Chloro-N-[3,3-dimethyl-6-(3-pyridin-4-yl-3,9-diazaspiro[5.5]undecane-9-carbonyl)-1,2-dihydro-inden-1-yl]-6-(trifluoromethyl)-benzamide]	100	99
